The text below walks through data of ChEMBL document CHEMBL1649074, “Aurora kinase inhibitors based on the imidazo[1,2-a]pyrazine core: fluorine and deuterium incorporation improve oral absorption and exposure” (J Med Chem, 2011).

In data set [1] the test system is Mus musculus. As to the kind of experiment: Inhibition of Aurora B-mediated histone H3 phosphorylation in nude mouse xenografted with human A2780 cells at 100 mg/kg, po administered as single dose measured 2 hrs. Type of data set: functional. Particulars: A2780, 2 h.
Data set [2] is described as follows: AUC (0 to 24 hrs) in cynomolgus monkey at 1 mg/kg, iv. Type of data set: ADME, organism-based, Macaca fascicularis. Set-up: time < 24 hr, dose 1 mg/kg, route intravenous. Particulars: plasma.
Data set [3] in a line: Clearance in cynomolgus monkey at 1 mg/kg, iv. The class given is ADME, organism-based, Macaca fascicularis. Set-up: dose 1 mg/kg, route intravenous. The following applies: in vivo.
Data set [4] deals with Canis familiaris. As to the kind of experiment: (§1) Oral bioavailability in Beagle dog at 10 mg/kg. The class given is ADME, organism-based, Canis lupus familiaris. The following applies: in vivo.
Data set [5] concerns Canis familiaris. Put plainly: (§2) AUC (0 to 24 hrs) in Beagle dog at 10 mg/kg, po. Type of data set: ADME, organism-based, Canis lupus familiaris, Plasma. Set-up: time < 24 hr, dose 10 mg/kg, route oral. Particulars: in vivo, 24 h.
Data set [6] has as its system Canis familiaris. As to the kind of experiment: AUC (0 to 24 hrs) in Beagle dog at 1 mg/kg, iv. Type of data set: ADME, organism-based, Canis lupus familiaris, Plasma. Set-up: time < 24 hr, dose 1 mg/kg, route intravenous. Particulars: in vivo.
A short description of data set [7]: Clearance in Beagle dog at 1 mg/kg, iv. The class given is ADME, organism-based, Canis lupus familiaris. Further details: dose 1 mg/kg, route intravenous. Particulars: in vivo.
Data set [8] is described as follows: AUC (0 to 24 hrs) in Beagle dog at 0.3 mg/kg, iv. Type of data set: ADME, organism-based, Canis lupus familiaris. Set-up: time < 24 hr, dose 0.3 mg/kg, route intravenous. The following applies: plasma.
Data set [9] is described as follows: Oral AUC in cynomolgus monkey at 10 mg/kg, po. Type of data set: ADME, organism-based, Macaca fascicularis. Set-up: dose 10 mg/kg, route oral. Particulars: in vivo.
Data set [10] is described as follows: Clearance in Beagle dog at 0.3 mg/kg, iv. Type of data set: ADME, organism-based, Canis lupus familiaris. The following applies: in vivo. Further details: dose 0.3 mg/kg, route intravenous.
Data set [11] in a line: Oral bioavailability in cynomolgus monkey at 10 mg/kg. The following applies: in vivo. The class given is ADME, organism-based, Macaca fascicularis.
Data set [12] is described as follows: AUC (0 to 24 hrs) in cynomolgus monkey at 0.3 mg/kg, iv. Type of data set: ADME, organism-based, Macaca fascicularis. Set-up: time < 24 hr, dose 0.3 mg/kg, route intravenous. Particulars: plasma.
Data set [13] in a line: Oral AUC in Beagle dog at 10 mg/kg, po. Type of data set: ADME, organism-based, Canis lupus familiaris. Set-up: dose 10 mg/kg, route oral. Particulars: in vivo.
Data set [14] in a line: Clearance in cynomolgus monkey at 0.3 mg/kg, iv. The class given is ADME, organism-based, Macaca fascicularis. The following applies: in vivo. Set-up: dose 0.3 mg/kg, route intravenous.
Data set [15] is described as follows: as §1. The class given is ADME, organism-based, Canis lupus familiaris. The following applies: beagle, in vivo.
Data set [16] is described as follows: as §2. Set-up: time < 24 hr, dose 10 mg/kg, route oral. Type of data set: ADME, organism-based, Canis lupus familiaris, Plasma. Particulars: beagle, plasma.
The target of data set [17] is Ribosomal protein S6 kinase alpha-3 (Homo sapiens, UniProt P51812). As to the kind of experiment: Inhibition of RSK2.
Data set [18] has as its target Tyrosine-protein kinase JAK2 (Homo sapiens, UniProt O60674). As to the kind of experiment: Inhibition of JAK2.
Data set [19] concerns the target Tyrosine-protein kinase Lck (Homo sapiens, UniProt P06239). Put plainly: Inhibition of LCK.

Sequence of Tyrosine-protein kinase JAK2 (O60674 whole entry): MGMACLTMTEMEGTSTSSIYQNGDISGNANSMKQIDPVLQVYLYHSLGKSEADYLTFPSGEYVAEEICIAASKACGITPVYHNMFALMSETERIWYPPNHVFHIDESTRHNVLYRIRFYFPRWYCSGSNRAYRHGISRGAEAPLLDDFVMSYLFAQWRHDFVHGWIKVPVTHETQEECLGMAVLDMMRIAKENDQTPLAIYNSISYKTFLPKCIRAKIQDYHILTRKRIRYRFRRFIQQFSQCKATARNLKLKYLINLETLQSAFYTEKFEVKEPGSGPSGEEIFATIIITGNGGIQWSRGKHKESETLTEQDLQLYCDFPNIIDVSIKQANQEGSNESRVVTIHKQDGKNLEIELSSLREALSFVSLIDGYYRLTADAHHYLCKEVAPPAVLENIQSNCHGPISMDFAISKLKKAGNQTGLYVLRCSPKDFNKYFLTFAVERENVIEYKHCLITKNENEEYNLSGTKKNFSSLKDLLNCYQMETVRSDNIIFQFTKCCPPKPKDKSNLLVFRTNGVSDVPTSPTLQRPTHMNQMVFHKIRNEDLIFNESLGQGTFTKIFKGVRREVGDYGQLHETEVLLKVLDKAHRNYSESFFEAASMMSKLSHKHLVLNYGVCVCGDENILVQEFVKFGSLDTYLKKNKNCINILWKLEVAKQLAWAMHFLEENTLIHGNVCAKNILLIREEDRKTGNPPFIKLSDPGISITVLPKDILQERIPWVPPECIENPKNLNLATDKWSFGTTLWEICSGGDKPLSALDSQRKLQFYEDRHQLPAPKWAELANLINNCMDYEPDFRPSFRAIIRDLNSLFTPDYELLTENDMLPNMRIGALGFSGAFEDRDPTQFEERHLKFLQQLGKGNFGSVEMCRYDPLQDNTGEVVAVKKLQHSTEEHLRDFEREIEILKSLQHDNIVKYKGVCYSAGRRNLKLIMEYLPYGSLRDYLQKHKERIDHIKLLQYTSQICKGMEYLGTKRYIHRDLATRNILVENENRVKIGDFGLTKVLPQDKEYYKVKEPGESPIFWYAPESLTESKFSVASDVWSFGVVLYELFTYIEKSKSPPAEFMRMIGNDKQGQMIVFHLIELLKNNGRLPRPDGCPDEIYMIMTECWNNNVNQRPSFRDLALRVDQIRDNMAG
Sequence of Tyrosine-protein kinase Lck (P06239 whole entry): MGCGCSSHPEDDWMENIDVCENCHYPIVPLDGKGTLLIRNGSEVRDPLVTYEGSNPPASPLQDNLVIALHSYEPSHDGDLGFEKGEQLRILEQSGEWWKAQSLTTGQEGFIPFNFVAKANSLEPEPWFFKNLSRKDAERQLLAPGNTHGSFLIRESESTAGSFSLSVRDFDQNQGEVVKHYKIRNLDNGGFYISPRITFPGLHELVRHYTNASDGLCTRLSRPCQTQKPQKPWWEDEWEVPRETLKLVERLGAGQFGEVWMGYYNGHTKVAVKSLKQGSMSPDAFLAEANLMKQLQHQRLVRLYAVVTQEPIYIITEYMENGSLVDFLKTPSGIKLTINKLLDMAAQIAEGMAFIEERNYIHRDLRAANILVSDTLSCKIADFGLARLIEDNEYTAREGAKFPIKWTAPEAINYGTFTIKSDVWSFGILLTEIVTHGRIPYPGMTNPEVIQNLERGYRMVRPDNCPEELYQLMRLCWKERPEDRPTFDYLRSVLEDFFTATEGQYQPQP
Sequence of Ribosomal protein S6 kinase alpha-3 (P51812 whole entry): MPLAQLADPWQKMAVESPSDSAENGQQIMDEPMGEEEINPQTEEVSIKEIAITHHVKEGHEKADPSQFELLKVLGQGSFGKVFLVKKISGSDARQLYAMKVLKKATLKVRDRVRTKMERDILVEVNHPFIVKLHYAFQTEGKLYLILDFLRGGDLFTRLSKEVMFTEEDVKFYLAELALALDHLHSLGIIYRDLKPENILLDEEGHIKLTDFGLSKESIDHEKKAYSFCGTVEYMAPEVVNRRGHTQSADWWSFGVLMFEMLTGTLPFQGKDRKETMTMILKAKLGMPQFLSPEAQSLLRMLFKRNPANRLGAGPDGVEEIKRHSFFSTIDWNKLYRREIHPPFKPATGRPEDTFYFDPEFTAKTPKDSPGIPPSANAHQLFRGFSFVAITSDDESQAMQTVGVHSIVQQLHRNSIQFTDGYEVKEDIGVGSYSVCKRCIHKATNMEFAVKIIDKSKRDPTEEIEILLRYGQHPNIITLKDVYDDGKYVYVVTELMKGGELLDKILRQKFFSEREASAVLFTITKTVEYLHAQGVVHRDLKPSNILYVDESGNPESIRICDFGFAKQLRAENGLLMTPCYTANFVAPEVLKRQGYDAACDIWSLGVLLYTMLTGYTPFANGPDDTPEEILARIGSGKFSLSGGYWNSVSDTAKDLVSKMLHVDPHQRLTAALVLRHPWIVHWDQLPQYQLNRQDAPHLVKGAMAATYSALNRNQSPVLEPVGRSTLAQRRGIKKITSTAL

Take `Cl.[2H]C([2H])(c1cc(Nc2nc(C)cn3c(-c4cn[nH]c4)cnc23)sn1)N1CCC(F)(F)C1`: at 100 mg/kg the inhibition in vivo in [1] was 83%. Also, the AUC(0-t) – broadly, the area under the concentration-time curve up to a stated or last time point – at 24 h in data set [2] was 9.5 µM·h. The clearance – broadly, a measure of how efficiently the substance is removed, as volume per time – in data set [3] is 4.2 mL/min/kg; in data set [7], 4.5 mL/min/kg. In [4], the F is recorded as 33%. In addition, the figures for the AUC in data set [5] and in data set [6] were 3.1 µM·h and 9 µM·h, respectively.
Regarding `Cc1cn2c(-c3cn[nH]c3)cnc2c(Nc2cc(CN3CCC(F)(F)C3)ns2)n1.Cl`, the results for the AUC(0-t) at 24 h in data set [8], in data set [12] and in data set [16] were 0.4 µM·h, 0.7 µM·h and 2.6 µM·h, respectively. Further, the AUC (in general, the area under the concentration-time curve, a measure of exposure) came to 0.8 µM·h in data set [9] and 2.6 µM·h in [13]. Also, the clearance came to 31 mL/min/kg in data set [10] and 18 mL/min/kg in [14]. Moreover, the values for the bioavailability in data set [11] and in data set [15] were 2% and 20%, respectively.
For the compound `CCN(Cc1cc(Nc2nc(C)cn3c(-c4cn[nH]c4)cnc23)sn1)C(C)(C)CO`, the IC50 (commonly the concentration that gives 50% inhibition) in data set [17] is above 100 nM; in data set [18] it was above 100 nM; in data set [19] it was below 1 nM.
